Data as given in PubChem BioAssay (NCI).
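Following 48 hours of exposure in 96-well plates, responses at five concentrations were used to interpolate endpoints linearly. At the GI50, growth is halved. TGI marks complete inhibition of growth.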

What was measured:
Assay in all cases: NCI anticancer screen, dose series, 48 h
[1] = test system: CAKI-1 renal
[2] = test system: MALME-3M melanoma
[3] = test system: OVCAR-8 ovarian
[4] = test system: HOP-62 NSCLC
[5] = test system: OVCAR-3 ovarian
[6] = test system: SF-295 CNS
[7] = test system: HCC-2998 colon
[8] = test system: SK-MEL-5 melanoma
[9] = test system: HL-60(TB) leukemia
[10] = test system: HS 578T breast
[11] = test system: MOLT-4 leukemia
[12] = test system: RXF 393 renal
[13] = test system: MCF7 breast
[14] = test system: K-562 leukemia
[15] = test system: OVCAR-4 ovarian
[16] = test system: CCRF-CEM leukemia
[17] = test system: COLO 205 colon
[18] = test system: UO-31 renal
[19] = test system: SF-539 CNS
[20] = test system: OVCAR-5 ovarian
[21] = test system: HCT-15 colon
[22] = test system: NCI-H522 lung
[23] = test system: MDA-MB-231 breast
[24] = test system: T-47D breast
[25] = test system: 786-0 renal
[26] = test system: BT-549 breast
[27] = test system: SNB-75 CNS
[28] = test system: TK-10 renal
[29] = test system: U251 CNS
[30] = test system: PC-3 prostate
[31] = test system: SF-268 CNS
[32] = test system: A498 renal
[33] = test system: NCI-H226 lung
[34] = test system: KM12 colon
[35] = test system: M14 melanoma
[36] = test system: SK-MEL-28 melanoma
[37] = test system: A549 NSCLC
[38] = test system: DU-145 prostate
[39] = test system: SNB-19 CNS
[40] = test system: UACC-62 melanoma
[41] = test system: HOP-92 NSCLC
[42] = test system: SK-MEL-2 melanoma
[43] = test system: LOX IMVI melanoma
[44] = test system: NCI-H23 lung
[45] = test system: HT29 colon
[46] = test system: SR leukemia
[47] = test system: ACHN renal
[48] = test system: SK-OV-3 ovarian
[49] = test system: EKVX NSCLC
[50] = test system: NCI-H460 lung
[51] = test system: RPMI-8226 leukemia
[52] = test system: SW-620 colon
[53] = test system: MDA-MB-435
[54] = test system: SN12C renal
[55] = test system: UACC-257 melanoma
[56] = test system: IGROV1 ovarian
[57] = test system: HCT-116 colon
[58] = test system: NCI/ADR-RES ovarian

SMILES: c1ccc(-c2c(-c3ccccc3)[n+](Cc3ccc4ccccc4c3)c(-c3cccc4ccccc34)n2Cc2ccc3ccccc3c2)cc1
- GI50 [1]: 265 nM
- TGI [1]: 1010 nM
- GI50 [2]: 91 nM
- TGI [2]: 1000 nM
- GI50 [3]: 153 nM
- TGI [3]: 1540 nM
- GI50 [4]: 301 nM
- TGI [4]: 1780 nM
- GI50 [5]: 94.5 nM
- TGI [5]: 1280 nM
- GI50 [6]: 90.6 nM
- TGI [6]: 458 nM
- GI50 [7]: 131 nM
- TGI [7]: 1500 nM
- GI50 [8]: 155 nM
- TGI [8]: 296 nM
- GI50 [9]: 34.2 nM
- TGI [9]: 228 nM
- GI50 [10]: 302 nM
- TGI [10]: 2200 nM
- GI50 [11]: 233 nM
- TGI [11]: 1270 nM
- GI50 [12]: 220 nM
- TGI [12]: 949 nM
- GI50 [13]: 169 nM
- TGI [13]: 1070 nM
- GI50 [14]: 45.1 nM
- TGI [14]: > 100000 nM
- GI50 [15]: 187 nM
- TGI [15]: 1120 nM
- GI50 [16]: 128 nM
- TGI [16]: 1660 nM
- GI50 [17]: 76.5 nM
- TGI [17]: 228 nM
- GI50 [18]: 306 nM
- TGI [18]: 1280 nM
- GI50 [19]: 371 nM
- TGI [19]: 1500 nM
- GI50 [20]: 321 nM
- TGI [20]: 1350 nM
- GI50 [21]: 327 nM
- TGI [21]: 1210 nM
- GI50 [22]: 253 nM
- TGI [22]: 978 nM
- GI50 [23]: 220 nM
- TGI [23]: 1000 nM
- GI50 [24]: 64.8 nM
- TGI [24]: 1270 nM
- GI50 [25]: 231 nM
- TGI [25]: 1630 nM
- GI50 [26]: 122 nM
- TGI [26]: 1180 nM
- GI50 [27]: 192 nM
- TGI [27]: 955 nM
- GI50 [28]: 239 nM
- TGI [28]: 1530 nM
- GI50 [29]: 74.7 nM
- TGI [29]: 1460 nM
- GI50 [30]: 64.1 nM
- TGI [30]: 1210 nM
- GI50 [31]: 220 nM
- TGI [31]: 1760 nM
- GI50 [32]: < 47.1 nM
- TGI [32]: 398 nM
- GI50 [33]: 203 nM
- TGI [33]: 828 nM
- GI50 [34]: 98.7 nM
- TGI [34]: 758 nM
- GI50 [35]: 187 nM
- TGI [35]: 1440 nM
- GI50 [36]: 191 nM
- TGI [36]: 1880 nM
- GI50 [37]: 166 nM
- TGI [37]: 1570 nM
- GI50 [38]: 262 nM
- TGI [38]: 1440 nM
- GI50 [39]: 108 nM
- TGI [39]: 1420 nM
- GI50 [40]: 286 nM
- TGI [40]: 1400 nM
- GI50 [41]: 79.1 nM
- TGI [41]: 479 nM
- GI50 [42]: 140 nM
- TGI [42]: 758 nM
- GI50 [43]: 150 nM
- TGI [43]: 496 nM
- GI50 [44]: 146 nM
- TGI [44]: 748 nM
- GI50 [45]: 46.6 nM
- TGI [45]: 1100 nM
- GI50 [46]: 192 nM
- TGI [46]: 1530 nM
- GI50 [47]: 249 nM
- TGI [47]: 743 nM
- GI50 [48]: 207 nM
- TGI [48]: 973 nM
- GI50 [49]: 187 nM
- TGI [49]: 1430 nM
- GI50 [50]: 154 nM
- TGI [50]: 1140 nM
- GI50 [51]: 32.6 nM
- TGI [51]: 295 nM
- GI50 [52]: 151 nM
- TGI [52]: 1330 nM
- GI50 [53]: 284 nM
- TGI [53]: 1180 nM
- GI50 [54]: 127 nM
- TGI [54]: 1140 nM
- GI50 [55]: 221 nM
- TGI [55]: 958 nM
- GI50 [56]: 147 nM
- TGI [56]: 1390 nM
- GI50 [57]: 92.7 nM
- TGI [57]: 1250 nM
- GI50 [58]: 1300 nM
- TGI [58]: 2940 nM
